Test results from US12252701B2, “Chimeric antigen receptor T cell therapy” (KITE PHARMA, INC., priority 2020, dated 2025).

Assays:
Nalm-6 luc = assay: CAR-T cell killing assay (luciferase viability of tumor cells)
[1] = test system: NALM6.GFP.LUC.CD19 target cells; assay: Serial killing assay; type: cell-based, human
Experimental: CD19 CAR-T cells were thawed in RPMI media supplemented with HEPES, Penicillin/Streptomycin/L-Glutamine and 10% FBS and rested overnight. The following day, drugs were serially diluted and prepared in 96-well plates. Rested T cells were counted and normalized so that 25,000 or 8,333 T cells were plated with 25,000 NALM6.GFP.LUC.CD19 target cells (1:1 or 1:3 Effector:Target ratio) in the prepared 96-well plates. At 16 hour post-incubation and every 3-4 days, T cell killing of targets was measured via luciferase detection. D-luciferin substrate was added to the co-culture wells at a final concentration of 0.14 mg/mL and plates were incubated at 37° C. in the dark for 10 minutes. Luminescent signal was read immediately after in a VarioSkan™ LUX microplate reader. T cell-mediated cytotoxicity was calculated as follows: % Cytotoxicity=[1−luciferase signal of (sample of interest/target alone control)]*100. Afterwards, co-cultures were stained with LIVE/DEAD and antibodies against CD4, CD8 and KIP-1 and then washed. Cells were then analyzed and quantified via the Attune NxT flow cytometer. T cells were then repeatedly stimulated with fresh 25,000 target cells, and this process was repeated every 3-4 days.

[2] = cited from earlier work
CAR-T cells = assay: CAR-T cell expansion assay (KIP-1 or CD3/CD28 stimulation); conditions: for % viabili.: CD3/CD28 stimulation; for % viabi.: KIP-1 stimulation
Experimental: 96-well plates were coated with 100 μl of KIP-1 antibody per well at 1 μg/ml in PBS and plates were incubated at 4° C. overnight. CAR-T cells were thawed and were rested in ImmunoCult expansion medium and incubated overnight at 37° C. Cells were then counted and resuspended at 2 million cells/ml and seed at 200,000 cells per well in 100 μl of expansion medium with 10 ng/ml recombinant IL2. For groups treated with KIP-1, 100 μl of expansion medium were added with 2× final drug dilutions. For CD3/CD28 treated groups, 100 μl of expansion media were added with 2× final drug dilutions containing 25 μl/ml of CD3/CD28 T cell activator from StemCell Technologies. Cells were then incubated at 37° C. After 4 days, cells were counted and diluted 1 to 8-fold in expansion media and then transferred to a 24-well plate. Cell counts were repeated at day 7 and transferred to T25 flasks. On day 11, all cells were harvested and counted.

CCS(=O)(=O)N1CC(CC#N)(n2cc(-c3ncnc4[nH]ccc34)cn2)C1 [baricitinib]
Mean tumor cell death (%) (Nalm-6 luc; E:T ratio 1:1, dose 10 nM): 97.9%
Mean tumor cell death (%) (Nalm-6 luc; E:T ratio 1:1, dose 20 nM): 97.5%
Mean tumor cell death (%) (Nalm-6 luc; E:T ratio 1:1, dose 40 nM): 85.7%
Mean tumor cell death (%) (Nalm-6 luc; E:T ratio 1:1, dose 60 nM): 96.2%
Mean tumor cell death (%) (Nalm-6 luc; E:T ratio 1:1, dose 80 nM): 96%
Mean tumor cell death (%) (Nalm-6 luc; E:T ratio 1:1, dose 100 nM): 93.1%
Mean tumor cell death (%) (Nalm-6 luc; E:T ratio 1:3, dose 10 nM): 65.6%
Mean tumor cell death (%) (Nalm-6 luc; E:T ratio 1:3, dose 20 nM): 65%
Mean tumor cell death (%) (Nalm-6 luc; E:T ratio 1:3, dose 40 nM): 67.4%
Mean tumor cell death (%) (Nalm-6 luc; E:T ratio 1:3, dose 60 nM): 59%
Mean tumor cell death (%) (Nalm-6 luc; E:T ratio 1:3, dose 80 nM): 55%
Mean tumor cell death (%) (Nalm-6 luc; E:T ratio 1:3, dose 100 nM): 31.1%
Mean tumor cell death (%) (Nalm-6 luc; E:T ratio 1:9, dose 10 nM): 25.4%
Mean tumor cell death (%) (Nalm-6 luc; E:T ratio 1:9, dose 20 nM): 27.6%
Mean tumor cell death (%) (Nalm-6 luc; E:T ratio 1:9, dose 40 nM): 26.1%
Mean tumor cell death (%) (Nalm-6 luc; E:T ratio 1:9, dose 60 nM): 21.1%
Mean tumor cell death (%) (Nalm-6 luc; E:T ratio 1:9, dose 80 nM): 3.97%
Mean tumor cell death (%) (Nalm-6 luc; E:T ratio 1:9, dose 100 nM): 5.5%
reduction of clinical dosing required to avoid negative impacts on product performance [1]: roughly 4 fold
Cmax ([2]; clinical dosing 2 mg daily, cell prints (nM)): 45.7 nM
Protein binding ([2]; plasma protein binding, reported): 50%
% viability (CAR-T cells; CD3/CD28, dose 5 nM, day 4): 72.9%
% viability (CAR-T cells; CD3/CD28, dose 5 nM, day 8): 55.7%
% viability (CAR-T cells; CD3/CD28, dose 5 nM, day 12): 83.1%
% viability (CAR-T cells; CD3/CD28, dose 10 nM, day 4): 70.7%
% viability (CAR-T cells; CD3/CD28, dose 10 nM, day 12): 84.7%
% viabili. (CAR-T cells; 10 nM, Day 0): 84%
% viabili. (CAR-T cells; 10 nM, Day 4): 82.3%
% viabili. (CAR-T cells; 10 nM, Day 8): 90.2%
% viabili. (CAR-T cells; 10 nM, Day 12): 80.2%
% viabili. (CAR-T cells; 20 nM, Day 0): 84%
% viabili. (CAR-T cells; 20 nM, Day 4): 86.4%
% viabili. (CAR-T cells; 20 nM, Day 8): 82.5%
% viabili. (CAR-T cells; 20 nM, Day 12): 76.7%
% viabili. (CAR-T cells; 40 nM, Day 0): 84%
% viabili. (CAR-T cells; 40 nM, Day 4): 89.8%
% viabili. (CAR-T cells; 40 nM, Day 8): 85.7%
% viabili. (CAR-T cells; 40 nM, Day 12): 74.7%
% viabili. (CAR-T cells; 60 nM, Day 0): 84%
% viabili. (CAR-T cells; 60 nM, Day 4): 91.7%
% viabili. (CAR-T cells; 60 nM, Day 8): 91.3%
% viabili. (CAR-T cells; 60 nM, Day 12): 71.5%
% viabili. (CAR-T cells; 80 nM, Day 0): 84%
% viabili. (CAR-T cells; 80 nM, Day 4): 91.1%
% viabili. (CAR-T cells; 80 nM, Day 8): 83.6%
% viabili. (CAR-T cells; 80 nM, Day 12): 67.7%
% viabili. (CAR-T cells; 100 nM, Day 0): 84%
% viabili. (CAR-T cells; 100 nM, Day 4): 86.8%
% viabili. (CAR-T cells; 100 nM, Day 8): 73.3%
% viabili. (CAR-T cells; 100 nM, Day 12): 76.3%
% viability (CAR-T cells; KIP-1, dose 10 nM, day 8): 58.7%
% viabi. (CAR-T cells; 10 nM, Day 0): 84%
% viabi. (CAR-T cells; 10 nM, Day 4): 64.7%
% viabi. (CAR-T cells; 10 nM, Day 8): 55.2%
% viabi. (CAR-T cells; 10 nM, Day 12): 70.4%
% viabi. (CAR-T cells; 20 nM, Day 0): 84%
% viabi. (CAR-T cells; 20 nM, Day 4): 61.3%
% viabi. (CAR-T cells; 20 nM, Day 8): 78%
% viabi. (CAR-T cells; 20 nM, Day 12): 73.5%
% viabi. (CAR-T cells; 40 nM, Day 0): 84%
% viabi. (CAR-T cells; 40 nM, Day 4): 65%
% viabi. (CAR-T cells; 40 nM, Day 8): 77.8%
% viabi. (CAR-T cells; 40 nM, Day 12): 68.8%
% viabi. (CAR-T cells; 60 nM, Day 0): 84%
% viabi. (CAR-T cells; 60 nM, Day 4): 57.8%
% viabi. (CAR-T cells; 60 nM, Day 8): 57.6%
% viabi. (CAR-T cells; 60 nM, Day 12): 70.8%
% viabi. (CAR-T cells; 80 nM, Day 0): 84%
% viabi. (CAR-T cells; 80 nM, Day 4): 66.2%
% viabi. (CAR-T cells; 80 nM, Day 8): 69.4%
% viabi. (CAR-T cells; 80 nM, Day 12): 69.5%
% viabi. (CAR-T cells; 100 nM, Day 0): 84%
% viabi. (CAR-T cells; 100 nM, Day 4): 67.7%
% viabi. (CAR-T cells; 100 nM, Day 8): 78.1%
% viabi. (CAR-T cells; 100 nM, Day 12): 65.2%
